In patent US8269000B2, “Substituted pyrimidine and triazine compounds” (Gruenenthal GmbH, priority 2008, dated 2012):

These compounds were tested against T1, rat B1R (Rattus norvegicus, UniProt P97583) (assay: FLIPR Ca2+ functional study on bradykinin receptor 1 (rB1R CHO K1 cells)). Conditions: % inhibition rat B1R at 10 μM.
T1 construct: expressed in transfected cells; host or cells: CHO K1 cells
T1 sequence (P97583 1-337): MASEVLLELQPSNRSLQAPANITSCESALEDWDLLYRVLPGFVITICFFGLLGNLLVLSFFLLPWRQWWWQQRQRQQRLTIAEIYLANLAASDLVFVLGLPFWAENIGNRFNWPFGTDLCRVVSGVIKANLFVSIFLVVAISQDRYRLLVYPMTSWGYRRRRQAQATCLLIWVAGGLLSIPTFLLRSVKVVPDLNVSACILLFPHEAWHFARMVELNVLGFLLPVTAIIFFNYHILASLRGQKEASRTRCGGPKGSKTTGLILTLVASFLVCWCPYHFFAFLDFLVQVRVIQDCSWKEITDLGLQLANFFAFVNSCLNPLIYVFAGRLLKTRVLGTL
Assay type: cell-based
Method: The agonistic or antagonistic activity of substances can be quantified on the bradykinin receptor 1 (B1R) of the species human and rat using ectopically expressing cell lines (CHO K1 cells) and with the aid of a Ca^2+-sensitive dye (Fluo-4) using a fluorescent imaging plate reader (FLIPR). The indication in % activation is based on the Ca^2+ signal after addition of Lys-Des-Arg^9-bradykinin (0.5 nM) or Des-Arg^9-bradykinin (100 nM). Antagonists lead to suppression of the Ca^2+ influx after the addition of the agonist. % Inhibition compared with the maximum achievable inhibition is indicated.
The agonistic or antagonistic activity of substances can be determined on the bradykinin receptor 1 (B1R) of the species human and rat using the following assay. According to this assay, the Ca^2+ influx through the channel is quantified with the aid of a Ca^2+-sensitive dye (Fluo-4 type, Molecular Probes Europe BV, Leiden, Netherlands) using a Fluorescent Imaging Plate Reader (FLIPR, Molecular Devices, Sunnyvale, USA).
Chinese hamster ovary cells (CHO K1 cells) which have been stably transfected with the human B1R gene (hB1R cells) or with the B1R gene of the rat (rB1R cells) are used. For functional studies, the cells are plated out on black 96-well plates having a clear base (BD Biosciences, Heidelberg, Germany or Greiner, Frickenhausen, Germany) in a density of 20,000-35,000 cells/well. The cells are left overnight at 37° C. and with 5% CO2 in culture medium (hB1R cells: Nutrient Mixture Ham's F12, Gibco Invitrogen GmbH, Karlsruhe, Germany or DMEM, Sigma-Aldrich, Taufkirchen, Germany; rB1R cells: D-MEM/F12, Gibco Invitrogen GmbH, Karlsruhe, Germany), with 10 vol.% FBS (fetal bovine serum, Gibco Invitrogen GmbH, Karlsruhe, Germany or PAN Biotech GmbH, Aidenbach, Germany). On the following day, the cells are loaded for 60 minutes at 37° C. with 2.13 μM Fluo-4 (Molecular Probes Europe BV, Leiden, Netherlands) in HBSS buffer (Hank's buffered saline solution, Gibco Invitrogen GmbH, Karlsruhe, Germany) […] (Sigma-Aldrich, Taufkirchen, Germany) and 10 mM HEPES (Sigma-Aldrich, Taufkirchen, Germany). The plates are then washed twice with HBSS buffer, and HBSS buffer additionally containing 0.1% BSA (bovine serum albumin; Sigma-Aldrich, Taufkirchen, Germany), 5.6 mM glucose and 0.05% gelatin (Merck KGaA, Darmstadt, Germany) is added to the plates. After incubation for a further 20 minutes at room temperature, the plates are inserted into the FLIPR for Ca^2+ measurement. Alternatively, washing is carried out with buffer A (15 mM HEPES, 80 mM NaCl, 5 mM KCl, 1.2 mM CaCl2, 0.7 mM MgSO4, 2 g/l glucose, 2.5 mM probenecid) followed by loading with buffer A with added 2.5 μM Fluo-4 and 0.025% Pluronic F127 (Sigma-Aldrich, Taufkirchen, Germany). The cells are then washed twice with buffer A and incubated for 30 minutes at room temperature with buffer A additionally containing 0.05% BSA and 0.05% gelatin and are then inserted into the FLIPR for Ca^2+ measurement. The Ca^2+-dependent fluorescence is measured before and after the addition of substances (λex=488 nm, λem=540 nm). Quantification is carried out by measuring the highest fluorescence intensity (FC, fluorescence counts) over time.
The FLIPR protocol consists of two substance additions. Test substances (10 μM) are first pipetted onto the cells and the Ca^2+ influx is compared with the control (hB1R: Lys-Des-Arg^9-bradykinin>=50 nM; rB1R: Des-Arg^9-bradykinin 10 μM). This gives the activation in %, based on the Ca^2+ signal after addition of Lys-Des-Arg^9-bradykinin (>=50 nM) or Des-Arg^9-bradykinin (10 μM). After 10-20 minutes' incubation, Lys-Des-Arg^9-bradykinin (hB1R) or Des-Arg^9-bradykinin (rB1R) is applied in the concentration of the EC80, and the influx of Ca^2+ is likewise determined. Antagonists lead to suppression of the Ca^2+ influx. The % inhibition compared with the maximum achievable inhibition is calculated. […]

Q: `COc1cc(C)c(S(=O)(=O)N2CC(Oc3ccnc(N(C)CCN4CCC(c5ccccc5)(N5CCCC5)CC4)n3)C2)c(C)c1` [H_CC-070] was tested. Which “% inh. (rat B1R) 10 μM” value did it give?
A: 53%

Same assay, conditions: CHO-K1, % inhibition rat B1R at 10 μM, read-out: % inh. (rat B1R) 10 μM

Q: With `COc1cc(C)c(S(=O)(=O)N2CCC[C@H]2COc2nccc(N3CCn4cc(CN5CCCCC5)nc4C3)n2)c(C)c1` [G_CC-109, 7-[2-[[(2S)-1-[(4-methoxy-2,6-dimethyl-phenyl)sulfonyl]-pyrrolidin-2-yl]-methoxy]-pyrimidin-4-yl]-2-(piperidin-1-yl-methyl)-5,6,7,8-tetrahydro-imidazo[1,2-a]pyrazine] as the compound, how does the inhibition at 10 µM read?
A: 98%

Q: With `COc1cc(C)c(S(=O)(=O)N(C)CCOc2ccnc(N3CC4CC3CN4Cc3ccncc3)n2)c(C)c1` (stereo not drawn) [H_CC-034, 4-methoxy-N,2,6-trimethyl-N-[2-[[2-[2-(4-pyridylmethyl)-2,5-diazabicyclo[2.2.1]heptan-5-yl]-4-pyrimidinyl]oxy]ethyl]benzenesulfonamide] as the compound, how does the inhibition at 10 µM read?
A: 74%

Q: `COc1cc(C)c(S(=O)(=O)N2CCC[C@H]2COc2ccnc(N3CCC(c4ccccc4)(N(C)C)CC3)n2)c(C)c1` [H_CC-085, [1-[4-[[(2S)-1-[(4-methoxy-2,6-dimethyl-phenyl)sulfonyl]-pyrrolidin-2-yl]-methoxy]-pyrimidin-2-yl]-4-phenyl-piperidin-4-yl]-dimethyl-amine] was tested. Which inhibition at 10 µM did it give?
A: 70%

Q: With `COc1cc(C)c(S(=O)(=O)N2CCC[C@H]2COc2ccnc(N3CCC4(CCN(Cc5ccccc5)C4)C3)n2)c(C)c1` (stereo partly drawn) [H_CC-023, 3-benzyl-7-[4-[[(2S)-1-(4-methoxy-2,6-dimethylphenyl)sulfonyl-2-pyrrolidinyl]methoxy]-2-pyrimidinyl]-3,7-diazaspiro[4.4]nonane] as the compound, how does the inhibition at 10 µM read?
A: 76%

Q: Which inhibition at 10 µM does the source give for `COc1cc(C)c(S(=O)(=O)N2CCC[C@H]2COc2nccc(N3CCC(n4c(=O)[nH]c5cc(Cl)ccc54)CC3)n2)c(C)c1` [G_CC-034, 6-chloro-3-[1-[2-[[(2S)-1-(4-methoxy-2,6-dimethylphenyl)sulfonyl-2-pyrrolidinyl]methoxy]-4-pyrimidinyl]-4-piperidinyl]-1H-benzimidazol-2-one] here?
A: 93%

Q: How did the inhibition at 10 µM turn out when `COc1cc(C)c(S(=O)(=O)N2CCC[C@H]2COc2nccc(N(C)CCCN3CCC(c4ccccc4)(N(C)C)CC3)n2)c(C)c1` [G_CC-075, 3-(4-dimethylamino-4-phenyl-piperidin-1-yl)-propyl-[2-[[(2S)-1-[(4-methoxy-2,6-dimethyl-phenyl)sulfonyl]-pyrrolidin-2-yl]-methoxy]-pyrimidin-4-yl]-methyl-amine] was run?
A: 104%

Q: For `COc1cc(C)c(S(=O)(=O)N2CCC[C@H]2COc2nccc(N(C)CCN3CCC(c4ccccc4)(N4CCCC4)CC3)n2)c(C)c1` [G_CC-091, [2-[[(2S)-1-[(4-methoxy-2,6-dimethyl-phenyl)sulfonyl]-pyrrolidin-2-yl]-methoxy]-pyrimidin-4-yl]-methyl-[2-(4-phenyl-4-pyrrolidin-1-yl-piperidin-1-yl)-ethyl]-amine], which inhibition at 10 µM is on record?
A: 101%

Q: Which inhibition at 10 µM does the source give for `COc1cc(C)c(S(=O)(=O)N(C)CCOc2nccc(N3CCC4(CC3)C(=O)NCC4c3cccc(C(F)(F)F)c3)n2)c(C)c1` (stereo not drawn) [G_CC-043, 4-methoxy-N,2,6-trimethyl-N-[2-[[4-[4-oxo-1-[3-(trifluoromethyl)phenyl]-3,8-diazaspiro[4.5]decan-8-yl]-2-pyrimidinyl]oxy]ethyl]benzenesulfonamide] here?
A: 70%

Q: How did the inhibition at 10 µM turn out when `COc1cc(C)c(S(=O)(=O)N(C)C(COc2ccnc(N3[C@@H]4CC[C@H]3CC(Oc3ccncc3)C4)n2)c2ccccc2)c(C)c1` (stereo partly drawn) [H_CC-093, 4-methoxy-N,2,6-trimethyl-N-[1-phenyl-2-[2-[(1S,5R)-3-pyridin-4-yloxy-8-azabicyclo[3.2.1]octan-8-yl]-pyrimidin-4-yl]oxy-ethyl]-benzenesulfonic acid amide] was run?
A: 63%

Q: Which inhibition at 10 µM does the source give for `COc1cc(C)c(S(=O)(=O)N2CCCC(Oc3ccnc(N(C)CCCN4CCC(c5ccccc5)(N(C)C)CC4)n3)C2)c(C)c1` (stereo not drawn) [H_CC-073, 3-(4-dimethylamino-4-phenyl-piperidin-1-yl)-propyl-[4-[1-[(4-methoxy-2,6-dimethyl-phenyl)sulfonyl]-piperidin-3-yl]oxy-pyrimidin-2-yl]-methyl-amine] here?
A: 55%

Q: With `COc1cc(C)c(S(=O)(=O)N2CCCCC2COc2ccnc(N(C)CCN3CCC(Oc4ccncc4)CC3)n2)c(C)c1` (stereo not drawn) [H_CC-049, [4-[[1-[(4-methoxy-2,6-dimethyl-phenyl)sulfonyl]-piperidin-2-yl]-methoxy]-pyrimidin-2-yl]-methyl-[2-(4-pyridin-4-yloxy-piperidin-1-yl)-ethyl]amine] as the compound, how does the inhibition at 10 µM read?
A: 94%

Q: For `COc1cc(C)c(S(=O)(=O)N2CCC[C@H]2COc2nccc(N3CC4CC3CN4Cc3ccncc3)n2)c(C)c1` (stereo partly drawn) [G_CC-058, 5-[2-[[(2S)-1-(4-methoxy-2,6-dimethylphenyl)sulfonyl-2-pyrrolidinyl)methoxy]-4-pyrimidinyl]-2-(4-pyridylmethyl)-2,5-diazabicyclo[2.2.1]heptane], which inhibition at 10 µM is on record?
A: 93%

Q: `COc1cc(C)c(S(=O)(=O)N2CCC[C@H]2COc2ccnc(N3CCC(OCCN4CCCC4)(c4cccnc4)CC3)n2)c(C)c1` [H_CC-040, 4-[[(2S)-1-(4-methoxy-2,6-dimethylphenyl)sulfonyl-2-pyrrolidinyl]methoxy]-2-[4-(3-pyridyl)-4-(2-1-pyrrolidinylethoxy)-1-piperidinyl]pyrimidine] was tested. Which inhibition at 10 µM did it give?
A: 51%

Q: Which inhibition at 10 µM does the source give for `COc1cc(C)c(S(=O)(=O)N2CCCCC2COc2nccc(N3CCC4(CCN(Cc5ccccc5)C4)C3)n2)c(C)c1` (stereo not drawn) [G_CC-022, 3-benzyl-7-[2-[[1-(4-methoxy-2,6-dimethylphenyl)sulfonyl-2-piperidinyl]methoxy]-4-pyrimidinyl]-3,7-diazaspiro[4.4]nonane] here?
A: 104%

Q: `CN(C(COc1ccnc(N2CCC(OCCN3CCCC3)(c3cccnc3)CC2)n1)c1ccccc1)S(=O)(=O)c1ccc2ccccc2c1` (stereo not drawn) [H_CC-038, N-methyl-N-[1-phenyl-2-[[2-[4-(3-pyridyl)-4-(2-1-pyrrolidinylethoxy)-1-piperidinyl]-4-pyrimidinyl]oxy]ethyl]-2-naphthalenesulfonamide] was tested. Which inhibition at 10 µM did it give?
A: 70%

Q: `COc1cc(C)c(S(=O)(=O)N2CCCCC2COc2ccnc(N3CCC(CCCN4CCCC4)(c4cccnc4)CC3)n2)c(C)c1` (stereo not drawn) [H_CC-082, 4-[[1-[(4-methoxy-2,6-dimethyl-phenyl)sulfonyl]-piperidin-2-yl]-methoxy]-2-[4-pyridin-3-yl-4-(3-pyrrolidin-1-yl-propyl)piperidin-1-yl]-pyrimidine] was tested. Which inhibition at 10 µM did it give?
A: 72%

Q: `COc1cc(C)c(S(=O)(=O)N2CCC[C@H]2COc2ccnc(N3CCC(O)(c4ccccn4)CC3)n2)c(C)c1` [H_CC-047, 1-[4-[[(2S)-1-[(4-methoxy-2,6-dimethyl-phenyl)sulfonyl]-pyrrolidin-2-yl]-methoxy]-pyrimidin-2-yl]-4-pyridin-2-yl-piperidin-4-ol] was tested. Which inhibition at 10 µM did it give?
A: 85%
